Results published in US20240254121A1, “ALKYLAMIDE SUBSTITUTED, ANNULATED IMIDAZOLES AND USE THEREOF AS INSECTICIDES” (Bayer Aktiengesellschaft, priority 2021, published 2024).

Assays:
Format in all cases: in vivo
[1] = test system: adult engorged female ticks (Rhipicephalus microplus); test: Rhipicephalus (Boophilus) microplus injection test; details: 4 μg/tick, egg deposition after 7 days
Description: Rhipicephalus (Boophilus) Microplus—Injection Test
• Solvent: Dimethyl Sulfoxide
To produce a suitable preparation of active compound, 10 mg of active compound are dissolved in 0.5 mL solvent, and the concentrate is diluted with solvent to the desired concentration.
Five adult engorged female ticks (Rhipicephalus microplus) are injected with 1 μL compound solution into the abdomen. The ticks are transferred into replica plates and incubated in a climate chamber.
After 7 days egg deposition of fertile eggs is monitored. Eggs where fertility is not visible are stored in a climate chamber till hatching after about 42 days. An efficacy of 100% means all eggs are infertile; 0% means all eggs are fertile.

[2] = test system: adult flies Musca domestica strain WHO-N; test: Musca domestica test (MUSCDO surface treatment & contact assay); details: 24 hours after contact, read-out: efficacy (mortality); for mortality at 20 mg/m2: surface concentration 20 mg/m^2, 30 minutes exposure; for mortality at 4 mg/m2: surface concentration 4 mg/m^2, 30 minutes exposure
Description: Musca domestica Test (MUSCDO Surface Treatment & Contact Assay) • Solvent: Aceton+2000 ppm rapeseed oil methyl ester (RME)
(§1) In order to produce a sufficient, active ingredient containing solution it is necessary to solve the test compound in the solvent-mix (acetone at 2 mg/ml/RME 2000 ppm). This solution is pipetted onto a glazed tile and after evaporation of the acetone, adult flies of the species Musca domestica strain WHO-N are placed onto the dried surface. The exposure time is 30 minutes. Mortality in percent (%) is determined 24 hours after contact of the insects to the treated surface. 100% mortality means that all tested insects are dead, whereas 0% means that no insect died.

[3] = test system: fall armyworm larvae (Spodoptera frugiperda); test: Spodoptera frugiperda spray test; details: 168 h, maize leaf sections, after 7 days
Description: Spodoptera frugiperda—Spray Test • Solvent: 78.0 parts by weight acetone • 1.5 parts by weight dimethylformamide • Emulsifier: alkylarylpolyglycol ether
(§2) To produce a suitable preparation of active compound, 1 part by weight of active compound is mixed with the stated amount of solvents and is diluted with water, containing an emulsifier concentration of 1000 ppm, to the desired concentration. Further test concentrations are prepared by dilution with emulsifier containing water.
Maize (Zea mays) leaf sections are sprayed with a preparation of the active ingredient of the desired concentration. Once dry, the leaf sections are infested with fall armyworm larvae (Spodoptera frugiperda).
After 7 days mortality in % is determined. 100% means all caterpillars have been killed and 0% means none of the caterpillars have been killed.

[4] = test system: adult mosquitoes Aedes aegypti strain MONHEIM; test: Aedes aegypti test (AEDSAE surface treatment & contact assay); details: 24 hours after contact, read-out: efficacy (mortality); for mortality at 20 mg/m2: surface concentration 20 mg/m^2, 30 minutes exposure; for mortality at 4 mg/m2: surface concentration 4 mg/m^2, 30 minutes exposure
Description: Aedes aegypti Test (AEDSAE Surface Treatment & Contact Assay) • Solvent: Aceton+2000 ppm rapeseed oil methyl ester (RME)
as §1, with “mosquitoes” for “flies”, “Aedes aegypti” for “Musca domestica”, “MONHEIM” for “WHO-N”

[5] = test system: cattle tick larvae (Rhipicephalus microplus); test: Rhipicephalus (Boophilus) microplus in-vitro contact test, larval cattle tick (strain Parkhurst, resistant against synthetic pyrethroids); details: after 48 hours, read-out: efficacy (larvae dead or moribund); for pest or weed control at 1 µg/cm2, 100 g/ha: 1 μg/cm^2 (=100 g/ha)
Description: Rhipicephalus (Boophilus) Microplus—In-Vitro Contact Tests Larval Cattle Tick (Strain Parkhurst, Resistant Against Synthetic Pyrethroids)
(§3) 9 mg compound is solved in 1 mL acetone and diluted with acetone to the desired concentration. 250 μL of the test solution is filled in 25 mL glass test tubes and homogeneously distributed on the inner walls by rotation and tilting on a shaking device (2 h at 30 rpm). With a compound concentration of 900 ppm, an inner surface of 44.7 cm^2 and a homogeneous distribution, a dose of 5 μg/cm^2 is achieved.
After the solvent has evaporated, each test tube is filled with 20-50 cattle tick larvae (Rhipicephalus microplus), closed with a perforated lid and incubated in a horizontal position at 85% relative humidity and 27° C. in an incubator. After 48 hours efficacy is determined. The larvae are patted on the ground of the tubes and negative geotactic behavior is recorded.
An efficacy of 100% means all larvae are dead or moribund; 0% means no larvae are dead or moribund.

[6] = test system: green peach aphid (Myzus persicae); test: Myzus persicae oral test; details: 120 h, after 5 days
Description: Myzus persicae—Oral Test • Solvent: 100 parts by weight acetone
(§4) To produce a suitable preparation of active compound, 1 part by weight of active compound is mixed with the stated amount of solvent, and the concentrate is diluted with water to the desired concentration.
(§5) 50 μL compound solution is filled in microtiter plates and 150 μL IPL41 insect medium (33%+15% sugar) is added to obtain a total volume of 200 μL per well. Afterwards the plates are sealed with parafilm through which a mixed population of the green peach aphid (Myzus persicae) can suck on the compound preparation.
(§6) After 5 days mortality in % is determined. 100% means all aphids have been killed and 0% means none of the aphids have been killed.

[7] = test system: brown planthopper (Nilaparvata lugens); test: Nilaparvata lugens spray test; details: 96 h, rice plants, after 4 days
Description: Nilaparvata lugens—Spray Test • Solvent: 78.0 parts by weight of acetone • 1.5 parts by weight of dimethylformamide • Emulsifier: alkylarylpolyglycol ether
as §2
Rice plants (Oryza sativa) are sprayed with a preparation of the active ingredient of the desired concentration and the plants are infested with the brown planthopper (Nilaparvata lugens).
After 4 days mortality in % is determined. 100% means all planthoppers have been killed and 0% means none of the planthoppers have been killed.

[8] = test system: cotton aphid (Aphis gossypii); test: Aphis gossypii oral test; details: 120 h, after 5 days
Description: Aphis gossypii—Oral Test • Solvent: 100 Parts by Weight Acetone
as §4
as §5, with “cotton” for “green peach”, “(Aphis gossypii)” for “(Myzus persicae)”
as §6

[9] = test system: larvae of the southern green stink bug (Nezara viridula); test: Nezara viridula spray test; details: 96 h, barley plants, after 4 days
Description: Nezara viridula—Spray Test • Solvent: 78.0 parts by weight of acetone • 1.5 parts by weight of dimethylformamide • Emulsifier: alkylarylpolyglycol ether
as §2, with “solvent,” for “solvents”, “and the concentrate” for “and”
Barley plants (Hordeum vulgare) are sprayed with a test solution containing the desired concentration of the active ingredient and are infested with larvae of the southern green stink bug (Nezara viridula).
After 4 days mortality in % is determined. 100% means all the stink bugs have been killed; 0% means none of the stink bugs have been killed.

[10] = test system: larvae of the banded cucumber beetle (Diabrotica balteata); test: Diabrotica balteata spray test; details: 168 h, 100 g/ha (=32 μg/well), wheat seeds, after 7 days, read-out: efficacy (seedling growth)
Description: Diabrotica Balteata—Spray Test
• Solvent: 78.0 Parts by Weight of Acetone • 1.5 parts by weight of dimethylformamide • Emulsifier: Alkylarylpolyglycol Ether
as §2, with “solvent,” for “solvents”, “and the concentrate” for “and”
Soaked wheat seeds (Triticum aestivum) are placed in a multiple well plate filled with agar and some water and are incubated for 1 day to germinate (5 seeds per well). The germinated wheat seeds are sprayed with a test solution containing the desired concentration of the active ingredient. Afterwards each unit is infected with 10-20 larvae of the banded cucumber beetle (Diabrotica balteata).
After 7 days efficacy in % is determined. 100% means all the seedlings have grown up like in the untreated, uninfected control; 0% means none of the seedlings have grown.

[11] = test system: green peach aphid (Myzus persicae); test: Myzus persicae spray test; details: foliar, 120 h, Chinese cabbage leaf disks, after 5 days
Description: Myzus persicae—Spray Test • Solvent: 78.0 parts by weight acetone • 1.5 parts by weight dimethylformamide • Emulsifier: alkylarylpolyglycol ether
as §2
Chinese cabbage (Brassica pekinensis) leaf disks infected with all instars of the green peach aphid (Myzus persicae), are sprayed with a preparation of the active ingredient of the desired concentration.
as §6

[12] = test system: adult brown dog ticks (Rhipicephalus sanguineus); test: Rhipicephalus sanguineus in-vitro contact test with adult brown dog ticks; details: 1 μg/cm^2 (=100 g/ha), after 48 hours
Description: Rhipicephalus sanguineus—In-Vitro Contact Tests with Adult Brown Dog Ticks
as §3
After the solvent has evaporated, each test tube is filled with 5-10 adult brown dog ticks (Rhipicephalus sanguineus), closed with a perforated lid and incubated in a lying position at room temperature and relative humidity. After 48 hours efficacy is determined. The ticks are patted on the ground of the tubes and are incubated on a heating plate at 45-50° C. for at most 5 minutes. Immotile or uncoordinated moving ticks, which are not able to escape the heat by climbing upwards, are marked as dead or moribund.
An efficacy of 100% means all ticks are dead or moribund; 0% means no ticks are dead or moribund.

[13] = test system: adult mosquitoes Culex quinquefasciatus strain P00; test: Culex quinquefasciatus test (CULXFA surface treatment & contact assay); details: surface concentration 20 mg/m^2, 30 minutes exposure, 24 hours after contact, read-out: efficacy (mortality)
Description: Culex quinquefasciatus Test (CULXFA Surface Treatment & Contact Assay) • Solvent: Aceton+2000 ppm rapeseed oil methyl ester (RME)
as §1, with “2,000” for “2000”, “mosquitoes” for “flies”, “Culex quinquefasciatus” for “Musca domestica”, “P00” for “WHO-N”

| Structure (SMILES) | mortality at 20 mg/m2 [2] [%] | mortality at 100 g/ha [3] [%] | mortality at 20 mg/m2 [4] [%] | pest or weed control at 1 µg/cm2, 100 g/ha [5] [%] | mortality at 500 g/ha [7] [%] | mortality at 4 mg/m2 [4] [%] | pest or weed control at 32 µg/disc, 100 g/ha [10] [%] | mortality at 100 g/ha [11] [%] | efficacy (ticks dead or moribund) [12] [%] | also measured |
| --- | --- | --- | --- | --- | --- | --- | --- | --- | --- | --- |
| C[C@H](NC(=O)c1cc(OC(F)(F)F)cc(C2CC2)c1)c1nc2cccnc2n1-c1ccc(C#N)cn1 [Example I-2] | 80 to 100 | 100 | 80 to 100 | 100 |  |  |  |  |  | efficacy (infertile eggs) [1]: 100%; pest or weed control at 5 µg/cm2, 500 g/ha ([5]; 5 μg/cm^2 (=500 g/ha)): 100% |
| C[C@H](NC(=O)c1cc(OC(F)(F)F)cc(S(C)(=O)=O)c1)c1nc2cccnc2n1-c1ccc(C#N)cn1 [Example I-4] |  | 100 |  |  | 90 | 80 to 100 | 100 |  |  | mortality at 20 ppm [6]: 100%; mortality at 100 ppm [8]: 100%; mortality at 500 g/ha [9]: 100% |
| C[C@H](NC(=O)c1cc(C#N)cc(C2(C#N)CC2)c1)c1nc2cccnc2n1-c1ccc(C#N)cn1 [Example I-6] |  | 100 |  | 90 |  | 80 to 100 |  | 90 |  |  |
| CC(NC(=O)c1cc(C(F)(F)F)cc(C(F)(F)F)c1)c1nc2cccnc2n1-c1ccc(Cl)cn1 (stereo not drawn) [Example I-8] | 80 to 100 | 100 | 80 to 100 | 100 |  |  | 100 |  | 80 |  |
| CC(NC(=O)c1cc(OC(F)(F)F)cc(OC(F)(F)F)c1)c1nc2cccnc2n1-c1ccc(Cl)cn1 (stereo not drawn) [Example I-9] | 80 to 100 | 100 |  | 80 |  |  | 100 |  |  | mortality at 20 ppm [6]: 100%; mortality at 500 g/ha ([11]; 500 g/ha): 90%; mortality at 100 ppm [8]: 100% |
| CC(NC(=O)c1cc(OC(F)(F)F)cc(C2CC2)c1)c1nc2cccnc2n1-c1ccc(Cl)cn1 (stereo not drawn) [Example I-13] |  |  |  | 90 |  |  |  |  | 80 |  |
| C[C@H](NC(=O)c1cc(C(F)F)n(C)n1)c1nc2cccnc2n1-c1ccc(C#N)cn1 [Example I-17] |  |  |  |  |  |  |  |  | 100 |  |
| CC(NC(=O)c1cc(C(F)(F)F)cc(C(F)(F)F)c1)c1nc2cccnc2n1-c1ccc(C(=O)N(C)C)cn1 (stereo not drawn) [Example I-26, 6-(2-{1-[3,5-bis(trifluoromethyl)benzamido]ethyl}-3H-imidazo[4,5-b]pyridin-3-yl)-N,N-dimethylnicotinamide] |  |  | 80 to 100 |  | 100 |  |  | 90 |  |  |
| CC(NC(=O)c1cc(C(F)(F)F)cc(C(F)(F)F)c1)c1nc2cccnc2n1-c1ccc(C#N)cn1 (stereo not drawn) [Example I-35] | 80 to 100 | 100 | 80 to 100 |  |  | 80 to 100 | 100 | 100 |  | mortality at 4 mg/m2 [2]: 80 to 100%; mortality at 20 mg/m2 [13]: 80 to 100% |
| CC(NC(=O)c1cc(OC(F)F)cc(OC(F)F)c1)c1nc2cccnc2n1-c1ccc(C#N)cn1 (stereo not drawn) [Example I-40] | 80 to 100 | 100 | 80 to 100 |  | 90 | 80 to 100 | 100 |  |  | mortality at 4 mg/m2 [2]: 80 to 100% |
